{"source": "patent US12303594B2", "about": "“Antimicrobial and anti-inflammatory compositions” (The Texas A&M University System, priority 2015, dated 2025)", "key": {"[1]": {"test_system": "Escherichia coli strain EC J53+pmg101", "test": "In vitro bacterial growth study (OD600)", "type": "cell-based", "details": "10 μg/mL or 1 μg/mL ibuprofen solution added 1:1 (v:v)"}, "[2]": {"test_system": "PA01", "test": "Mouse model of acute P. aeruginosa pneumonia (bacterial burden, weight, clinical scores)", "type": "in vivo, mice"}, "[3]": {"test_system": "PA01", "test": "In vivo survival study after P. aeruginosa infection", "parameters": "species or system mice", "experimental": "[…]. […] […]. Also, the mice were weighed and assigned clinical scores, a semi-quantitative metric that rates their signs of infection from asymptomatic (0) to moribund (6), at the start of the study, at 12 hours, and at the termination of the study. […]. For this study, the mice were administered treatment on the same schedule and were observed continuously for their time of death over the course of 72 hours, by the end of which any surviving mice begin to recover. […]."}, "[4]": {"test": "Particle size distribution by laser light diffraction", "type": "physicochemical", "experimental": "The particle size distribution (PSD) D10, D50, and D90 values for each sample were defined as particle diameters at the 10th, 50th, and 90th percentile and the span value was calculated according to Equation 2: […]\nPSD analysis by laser light diffraction: PSDs were determined using a Sympatec Helos equipped with a Cuvette module (System-Partikel-Technik GmbH, Clausthal-Zellerfeld, Germany). Data were analyzed using the Sympatec WINDOX software. For each measurement, per a previously optimized method, about 2 mg of powder was dispersed in 0.5 mL of 0.1% (w/v) sodium dodecyl sulfate in water and the sample was sonicated for 5 min. […] After the reference measurement, 50 μL aliquots of the sonicated suspension were added to the cell to achieve optical concentrations of between 10 to 20% and the total of six measurements were performed on each sample. Formulations immediately following air-jet milling (25IBU10.1, 25IBU10.2) and after 6 months (25IBU10.1**, 25IBU10.2**) stored at RT (IBU10.1), or at −80° C. (IBU10.2) were analyzed.\nPSDs were determined using a Sympatec Helos equipped with a Cuvette module (System-Partikel-Technik GmbH, Clausthal-Zellerfeld, Germany). Data were analyzed using the Sympatec WINDOX software. For each measurement per a previously optimized method, about 2 mg of powder was dispersed in 0.5 mL of 0.1% (w/v) SLS in water and the sample was sonicated for 5 minutes. […] After the reference measurement, 50 μL aliquots of the sonicated suspension were added to the cell to achieve optical concentrations of between 10 to 20% and the total of six measurements were performed on each sample. Analyzed samples included: unprocessed IBU and IND as well as the milled samples from different sections of the jet mill including the tube after grinding chamber (bfC), the cyclone (C), the collection vessel adapter (D), the collection bag adapter (E), the collection vessel (G) and the collection bag (H) for each run. The span value was calculated according to Equation 2.\nTo estimate the overall D10, D50, and D90 values for the combined recovered fractions associated with each run, stacked bar charts were graphed and analyzed to determine the yield normalized cumulative PSDs. Each stacked bar corresponded to a particle size bin and its height corresponded to the volume density distributions' weighted averages by the yield for each segment of the jet mill. The D10, D50, and D90 values for the normalized cumulative PSDs were the particle sizes corresponding to the 10, 50, and 90% area of the stacked bar chart respectively.\nTween 20 and sodium lauryl sulfate (SLS) were purchased from Fisher Scientific (Fisher Scientific, Pittsburgh, PA, USA), and dH2O was used for preparing solutions. […] A reference measurement was done in 0.1% (v/v) Span 85 in light mineral oil. After a reference measurement, aliquots of […] of sonicated suspension were added to achieve optical concentrations from 10 to 20% for a total of six measurements.\nFurthermore, D10, D50, and D90 values for each sample were defined as particle diameters at the 10th, 50th, and 90th percentile of the PSD. Span was calculated according to Equation 2. Normalized cumulative PSDs were composed of yield-normalized distributions, where they were depicted as stacked bar charts. D10, D50, and D90 values for normalized cumulative PSDs were calculated by approximating particle sizes associated with 10%, 50%, and 90% area of the stacked bar chart."}, "[5]": {"test": "Brunauer-Emmett-Teller specific surface area", "type": "physicochemical", "experimental": "Brunauer-Emmett-Teller: Surface area (SA) was evaluated via a single-point BET method using a Monosorb® surface area analyzer (Quantrachrome Instruments; FL, USA) following 24 hour outgassing with helium at room temperature (RT) before each measurement in triplicate on a known powder mass (m). SSA was calculated using Equation 3: […]\nBrunauer-Emmett-Teller (BET) specific surface area (SSA) measurements were taken. Surface area (SA) was evaluated via a single-point BET method using a Monosorb® surface area analyzer (Quantrachrome Instruments; FL, USA) following 24 hour outgassing with helium at room temperature before each measurement in triplicates. Samples masses (m) were at least 50 mg for the jet-milled powders depending on availability and 500 mg for the unprocessed samples. SSA was calculated according to the following formula: […]"}, "[6]": {"test": "Helium pycnometry true density", "type": "physicochemical", "details": "N = 3", "experimental": "Helium pycnometry: True densities were measured using an MVP-D160-E multipycnometer (Quantrachrome Instruments; FL, USA) equipped with the micro cell and adapter. Measurements were conducted in triplicates. Before pressure measurements, the multipycnometer was purged with helium gas according to the manufacturer's recommendations.\nTrue densities were measured using a MVP-D160-E multipycnometer (Quantrachrome Instruments; FL, USA). For density measurements, the micro cell and the micro cell adapter were used, and samples weighed at least 0.1 g for the jet-milled powders depending on availability and at least 0.6 g for the unprocessed powders."}, "[7]": {"test": "Angle of repose (USP method)", "type": "physicochemical", "details": "N = 3", "experimental": "Angle of repose: Angles of repose were measured in triplicate according to the United States Pharmacopoeia (USP) method. Images of the powder mounds were taken using a digital camera and were analyzed using the ImageJ software (Wayne Rasband, Research Services Branch, National Institute of Mental Health, Bethesda, MD, USA). […]"}, "[8]": {"test_system": "PA HP3", "test": "Endpoint time-kill synergy study", "details": "ibuprofen with sub-MIC antimicrobial vs antimicrobial alone, 9 hours", "description": "Afterwards, the inoculums were plated to determine their CFU/ml. Synergy from the combination was determined by a ≥2×log10 decrease in CFU/ml when compared to antimicrobial treatment alone."}, "[9]": {"test_system": "Pseudomonas aeruginosa, PA01", "test": "In vitro bacterial growth study (OD600)", "details": "10 μg/mL or 1 μg/mL ibuprofen solution added 1:1 (v:v)", "description": "(§1) Various gram-negative bacterial strains (Pseudomonas aeruginosa, PA01: Burkholderia multivorans, BM; and an Escherichia coli strain. EC J53+pmg101) were cultured in Mueller Hinton (MH) broth to a density of 5*10^5 colony forming units (CFU)/ml as verified by serial dilution and growth of colonies on tryptic soy agar (TSA) plates. […] Endpoint CFU counting was also performed on PA01 and a Staphylococcus aureus vancomycin-intermediate (VISA) strain (Mu50)."}, "[10]": {"test_system": "Burkholderia multivorans, BM", "test": "In vitro bacterial growth study (OD600)", "details": "10 μg/mL or 1 μg/mL ibuprofen solution added 1:1 (v:v)", "description": "as §1"}, "[11]": {"details": "0.75 mg in syrup by mouth every 8 hours, 36 hours post-infection, vs syrup only"}, "[12]": {"details": "collection bag fraction or stock, Table 8"}, "[13]": {"details": "fraction used for testing (IBU collection bag, IND cyclone) or unprocessed powder"}}, "data": [{"smiles": "CC(C)Cc1ccc(C(C)C(=O)O)cc1", "note": "(stereo not shown) [ibuprofen, 2(4-isobutylphenyl)propanoic acid]", "values": [{"measurement": "bacterial growth (OD600)", "setting": "[1]", "result": "slowed and/or delayed the growth"}, {"measurement": "lung bacterial burden (CFU counts)", "setting": "[2]; [11]", "result": "Significant reductions"}, {"measurement": "spleen bacterial burden (CFU counts)", "setting": "[2]; [11]", "result": "Significant reductions"}, {"measurement": "weight loss after infection", "setting": "[2]; 36 hour study", "result": "no significant effect"}, {"measurement": "survival", "setting": "[3]; 72 hours, treated mice", "result": 92, "unit": "%"}, {"measurement": "weight loss", "setting": "[3]; day 3", "result": "less weight loss"}, {"measurement": "clinical scores", "setting": "[3]; days 2 and 3", "result": "significantly better clinical scores"}, {"measurement": "D50", "setting": "[4]; [12]", "result": 48.0, "unit": "μm"}, {"measurement": "D90", "setting": "[4]; [12]", "result": 106.7, "unit": "μm"}, {"measurement": "Span", "setting": "[4]; [12]", "result": 1.8}, {"measurement": "Span", "setting": "[4]; [13]", "result": 1.84}, {"measurement": "median size (d50)", "setting": "[4]; [13]", "result": 48, "unit": "μm"}, {"measurement": "surface area", "setting": "[5]", "result": "0.357±0.005", "unit": "m^2/g"}, {"measurement": "SSA", "setting": "[5]; N = 3", "result": "0.36 ± 0.01", "unit": "m^2/g"}, {"measurement": "ρ (true density)", "setting": "[6]", "result": "1.14 ± 0.00", "unit": "g/mL"}, {"measurement": "Angle of Repose", "setting": "[7]", "result": "62.6 ± 2.9 º"}, {"measurement": "killing efficacy of ceftazidime and gentamicin (CFU/ml)", "setting": "[8]", "result": "significantly increased the killing efficacy of both ceftazidime and gentamicin"}, {"measurement": "bacterial growth (OD600)", "setting": "[9]", "result": "slowed and/or delayed the growth"}, {"measurement": "bacterial growth (OD600)", "setting": "[10]", "result": "slowed and/or delayed the growth"}]}]}
